Data set [1] can be described thus: Absorption spectra (absorption maxima) of dyes in organic solvents. It counts as physicochemical. An excerpt: (§1) All commercially available compounds were purchased from Aldrich Chemical Co., GFS Chemicals, Strem Chemicals, Acros Organics, Alfa Aesar, and Advanced Chemtech and used as received, except for p-toluenesulfonyl hydrazide, which was recrystallized from methanol. Amines were purchased from Aldrich Chemical Co. as purified by redistillation and used as received. Tetrahydrofuran (THF), diethyl ether (Et2O), and dichloromethane (CH2Cl2) were purified by passing through alumina using the Sol-Tek ST-002 solvent purification system. Acetonitrile (MeCN) and toluene were freshly distilled from CaH2 prior to use. Benzene was freshly distilled from sodium/benzophenone prior to use Anhydrous N,N-dimethylformamide (DMF), 1,2-dichloroethane (DCE), and 1,4-dioxane were purchased and used as received from Aldrich Chemical Co. Purification of the compounds by flash column chromatography was performed using silica gel (32-63 μm particle size, 60 Å pore size) purchased from Silicycle, or by using a Biotage Horizon flash purification system with either Biotage SNAP KP-SIL silica cartridges, or Teledyne ISCO RediSep Rf normal phase disposable flash columns (40-60 micron). TLC analyses were performed on EMD Chemicals Silica Gel 60 F254 glass plates (250 μm thickness). ^1H NMR and ^13C NMR spectra were recorded on Bruker Avance 300 MHz, 500 MHz, or 600 MHz spectrometers. Spectra were referenced to residual chloroform (7.27 ppm, ^1H, 77.0 ppm, ^13C) or 1,2-dichlorobenzene (6.93 ppm, ^1H, 127.19 ppm, ^13C). Chemical shifts are reported in ppm, multiplicities are indicated by s (singlet), d (doublet), t (triplet), q (quartet), p (pentet), and m (multiplet). Coupling constants, J, are reported in hertz (Hz). All NMR spectra were obtained at room temperature unless otherwise specified. IR spectra were obtained using a Nicolet Avatar E.S.P. 360 FT-IR. EI mass spectroscopy was performed on a Waters Micromass GCT high resolution mass spectrometer. ES mass spectroscopy was performed on a Waters Q-TOF Ultima API, Micromass UK Limited high resolution mass spectrometer. GC mass spectrometry was performed on a Shimadzu GCMS-17A/QP5050A spectrometer. All microwave-mediated reactions were carried out using a Biotage Initiator™ Exp microwave synthesizer. The microwave parameters were set to variable power, constant temperature, with the fixed hold time set to on. The microwave reactions were carried out in 0.2-0.5 mL, 0.5-2 mL, 2-5 mL, or 10-20 mL Biotage microwave vials. […] Absorption and fluorescence spectra were recorded on Lambda 9 spectrophotometer (Perkin Elmer) and FluoroMax-3 spectrofluorometer (Jobin Yvon, Horiba), respectively. Fluorescence quantum yields were determined by taking Prodan in DMSO (quantum yield, QY=91%) as a reference. The quantum yield values were corrected for the solvent refractive index. For spectroscopic measurements, 10^−5 M solutions of dyes in 10 mm quartz-cuvettes were used (excitation wavelength was 334 nm; slits open to 2 nm).

Data set [2] in a line: Fluorescence emission spectra (emission maxima, Stokes and bathochromic shifts). It counts as physicochemical.
From the text: as §1

Data set [3] can be described thus: Fluorescence quantum yield vs Prodan in DMSO as reference. It counts as physicochemical. The conditions noted are these: for QY (fluorescence quantum yield vs Prodan in DMSO (91%)): excitation 334 nm, 10^-5 M.
From the text: as §1

For data set [4] the following is noted: cited from earlier work.
For data set [5] the following is noted: Prodan in DMSO taken as reference; cited from earlier work.

Where two headings read alike, the source gives them in different places.

Turning to `CC(=O)c1c2c(cc3c(N(C)C)cccc13)CCC2` [Compound 12, 1-(8-(dimethylamino)-2,3-dihydro-1H-cyclopenta[b]naphthalen-4-yl)ethanone], the “λabs (maximum absorption)” value was 319 nm in data set [1] (1,4-Dioxane); 316 nm in data set [1] (Acetonitrile); 334 nm in data set [1] (CH2Cl2); 334 nm in data set [1] (CHCl3); 314 nm in data set [1] (Cyclohexane); 334 nm in data set [1] (DMSO). The “λabs (maximum absorption)” value in data set [1] (EtOH) came to 334 nm; in data set [1] (THF), 330 nm; in data set [1] (Toluene), 322 nm. For the same compound, in data set [1] (in methylene chloride), the absorption maximum worked out at 332 nm. For the same compound, the “λem (maximum emission)” value in data set [2] (1,4-Dioxane) is recorded as 534 nm; in data set [2] (Acetonitrile), 590 nm; in data set [2] (CH2Cl2) it was 562 nm; in data set [2] (CHCl3) it was 562 nm; in data set [2] (Cyclohexane), 480 nm; in data set [2] (DMSO) it was 598 nm. Besides, the entries for the “λem (maximum emission)” value in data set [2] (EtOH), in data set [2] (THF) and in data set [2] (Toluene) were 634 nm, 543 nm and 520 nm, respectively. Besides, the emission maximum in data set [2] (in methylene chloride) was found to be 562 nm. Further, the “QY (fluorescence quantum yield vs Prodan in DMSO (91%))” value amounted to 44% in data set [3] (1,4-Dioxane); 23% in data set [3] (Acetonitrile); 60% in data set [3] (CH2Cl2); 40% in data set [3] (CHCl3); 28% in data set [3] (Cyclohexane); 48% in data set [3] (DMSO). Besides, the “QY (fluorescence quantum yield vs Prodan in DMSO (91%))” value in data set [3] (THF) is 39%; in data set [3] (Toluene), 47%.
Consider `CCC(=O)c1ccc2cc(N(C)C)ccc2c1` [Prodan, reference compound], for which the “λabs (maximum absorption)” value in data set [1] (1,4-Dioxane) is listed as 346 nm; in data set [1] (Acetonitrile) it was 350 nm; in data set [1] (CH2Cl2), 355 nm; in data set [1] (DMSO) it was 357 nm; in data set [1] (EtOH), 362 nm; in data set [1] (THF) it was 348 nm. Also, the entries for the “λabs (maximum absorption)” value in data set [1] (Toluene) and in data set [1] (n-Hexane) were 346 nm and 340 nm, respectively. Also, the “QY (fluorescence quantum yield vs Prodan in DMSO (91%))” value in data set [3] (1,4-Dioxane) stood at 75%; in data set [3] (Acetonitrile), 80%; in data set [3] (CH2Cl2), 98%; in data set [3] (DMSO), 91%; in data set [3] (EtOH), 71%; in data set [3] (THF) it was 78%. Besides, the “QY (fluorescence quantum yield vs Prodan in DMSO (91%))” value in data set [3] (Toluene) is 56%. Besides, the “QY (fluorescence quantum yield)” value in data set [3] (n-Hexane) is 2.0%. Besides, the Bathochromic shift in data set [4] (cyclohexane to water (background)) is listed as 124 nm. The results for the fluorescent emission in data set [4] (in cyclohexane (background)) and in data set [4] (in water (background)) were 410 nm and 534 nm, respectively. The “quantum yield, QY (reference value)” value in data set [5] was 91%.

The record behind these values is US9896479B2, “Functionalized naphthalene fluorophores” (Kay M. Brummond, priority 2012, dated 2018).
